Marks after values point to notes of the source that are not given here.
Assays:
[1] = system: intensive care unit patients with severe septic shock; details: esmolol group; […] in the control group; cited from earlier work
[2] = system: patients with post-operative ileus; details: Phase 2, once daily dosing for up to 7 days; cited from earlier work
healthy volunteers [3] = assay: Phase 1 SAD/MAD study: growth hormone levels; format: in vivo, human; details: for GH level spike: 150 μg/kg TID
Experimental: A randomized, double-blind, placebo-controlled, single and multiple ascending IV dose (SAD and MAD), sequential-group study to assess the safety, tolerability, PK, and PD of ulimorelin in healthy subjects was initiated and conducted as follows.
Levels on Day 1 were meaningfully greater than those seen in placebo subjects at any timepoint (pooled placebo mean GH levels were 3.2 μg/L and ranged from about 0.1 to 11 μg/L). Over time, the spikes in GH levels diminished but remained measureable and within or slightly greater than the expected physiological range of the assay (0-0.8 μg/L for males and 0-8 μg/L for females).

[4] = system: diabetic gastroparesis patients; details: cited from earlier work
healthy volunteers [5] = assay: Phase 1 MAD study: gastric emptying by scintigraphic imaging; format: in vivo, human; details: for Gastric Emptying Day 1 Improvement Over Baseline T25% / Gastric Emptying Day 1 Improvement Over Baseline T50%: single dose Day 1; for acceleration of liquid meal emptying (GET50) vs pre-dosing baseline: TID
Experimental: Healthy male and female volunteers aged 18 to 55 years participated in the trial. […] The doses studied were SAD: 600, 1200, and 900 μg/kg and MAD: 300, 150, and 80 μg/kg q8H for seven days.

COC(=O)CCc1ccc(OCC(O)CNC(C)C)cc1 (centres unmarked) [esmolol]
twenty-eight day mortality [1]: 49.4%

ulimorelin
time to first bowel movement (BM) [2]: shortened time to first bowel movement
Mean Max GH (healthy volunteers [3]; Female, 150 μg/kg, Day 1): 18.8 μ/L
Mean Max GH (healthy volunteers [3]; Female, 150 μg/kg, Day 4): 10.7 μ/L
Mean Max GH (healthy volunteers [3]; Female, 150 μg/kg, Day 7): 6.2 μ/L
Mean Max GH (healthy volunteers [3]; Female, 300 μg/kg, Day 1): 41.5 μ/L
Mean Max GH (healthy volunteers [3]; Female, 300 μg/kg, Day 4): 31.5 μ/L
Mean Max GH (healthy volunteers [3]; Female, 600 μg/kg, Day 1): 77.9 μ/L
Mean Max GH (healthy volunteers [3]; Female, 900 μg/kg, Day 1): 83.4 μ/L
Mean Max GH (healthy volunteers [3]; Female, 1200 μg/kg, Day 1): 76.0 μ/L
Mean Max GH (healthy volunteers [3]; Male, 150 μg/kg, Day 1): 11.4 µg/L
Mean Max GH (healthy volunteers [3]; Male, 150 μg/kg, Day 4): 2.4 µg/L
Mean Max GH (healthy volunteers [3]; Male, 150 μg/kg, Day 7): 1.7 µg/L
Mean Max GH (healthy volunteers [3]; Male, 300 μg/kg, Day 1): 18.7 µg/L
Mean Max GH (healthy volunteers [3]; Male, 300 μg/kg, Day 4): 4.0 µg/L
Mean Max GH (healthy volunteers [3]; Male, 300 μg/kg, Day 7): 3.0 µg/L
Mean Max GH (healthy volunteers [3]; Male, 600 μg/kg, Day 1): 41.7 µg/L
Mean Max GH (healthy volunteers [3]; Male, 900 μg/kg, Day 1): 79.7 µg/L
Mean Max GH (healthy volunteers [3]; Male, 1200 μg/kg, Day 1): 53.0 µg/L
Mean Max GH (healthy volunteers [3]; Person, 300 μg/kg, Day 7, n = 1): 11.3* μ/L
GH level spike (healthy volunteers [3]; females, Day 1): ~19 µg/L
GH level spike (healthy volunteers [3]; males, Day 1): ~11 µg/L
gastric emptying ([4]; Phase 2, 10 patients with diabetic gastroparesis, 30 min IV infusion once daily): accelerated gastric emptying of solid and liquid food
GCSI scores ([4]; additional Phase 2 study of diabetic gastroparesis patients): improvements in GCSI Loss of Appetite and Vomiting scores
Gastric Emptying Day 4 Improvement Over Baseline T25% (healthy volunteers [5]; 80 μg/kg q8H): 35%
Gastric Emptying Day 4 Improvement Over Baseline T50% (healthy volunteers [5]; 80 μg/kg q8H): 26%
Gastric Emptying Day 1 Improvement Over Baseline T25% (healthy volunteers [5]; 80 μg/kg): 30%
Gastric Emptying Day 1 Improvement Over Baseline T50% (healthy volunteers [5]; 80 μg/kg): 14%
Gastric Emptying Day 4 Improvement Over Baseline T25% (healthy volunteers [5]; 150 μg/kg q8H): 25%
Gastric Emptying Day 4 Improvement Over Baseline T50% (healthy volunteers [5]; 150 μg/kg q8H): 23%*
Gastric Emptying Day 1 Improvement Over Baseline T25% (healthy volunteers [5]; 150 μg/kg): 45%*
Gastric Emptying Day 1 Improvement Over Baseline T50% (healthy volunteers [5]; 150 μg/kg): 34%*
Gastric Emptying Day 4 Improvement Over Baseline T25% (healthy volunteers [5]; 300 μg/kg q8H): 31%
Gastric Emptying Day 4 Improvement Over Baseline T50% (healthy volunteers [5]; 300 μg/kg q8H): 27%*
Gastric Emptying Day 1 Improvement Over Baseline T25% (healthy volunteers [5]; 300 μg/kg): 54%*
Gastric Emptying Day 1 Improvement Over Baseline T50% (healthy volunteers [5]; 300 μg/kg): 46%*
acceleration of liquid meal emptying (GET50) vs pre-dosing baseline (healthy volunteers [5]; Day 1, both treatment groups): greater than 30%
acceleration of liquid meal emptying (GET50) vs pre-dosing baseline (healthy volunteers [5]; Day 4, both treatment groups): > 20%
